The source of these data is paper PMC4767141, “Discovery of Potent, Orally Bioavailable, Small-Molecule Inhibitors of WNT Signaling from a Cell-Based Pathway Screen” (Journal of Medicinal Chemistry, 2015).

pIC50: −log10 of the molar value.

Series [1] in a line: In vitro reactive metabolite assay. The format is in vitro ADME. As to conditions: data not shown.
The target in a further series is T1, ACK1 (Homo sapiens, UniProt Q07912).
T1 construct: purchased Millipore KinaseProfiler (kinases); Cerep (receptors and ion channels)
Description: Millipore kinase panel. The format is biochemical. As to conditions: read-out: % Control.

The target of the next series is T2, GSK3ALPHA (Homo sapiens, UniProt P49840).
T2 construct: purchased Millipore
Description: Millipore kinase panel. The format is biochemical. As to conditions: read-out: % Control.

Another series has as its target T3, DRAK1 (Homo sapiens, UniProt Q9UEE5).
T3 construct: purchased Millipore KinaseProfiler (kinases); Cerep (receptors and ion channels)
Kind of series: Millipore kinase panel. The format is biochemical. As to conditions: read-out: % Control.

The next series concerns the target T4, HCK (Homo sapiens, UniProt P08631).
T4 construct: purchased Millipore KinaseProfiler (kinases); Cerep (receptors and ion channels)
Kind of series: Millipore kinase panel. The format is biochemical. As to conditions: ATP at Km, read-out: % Control.

A further series addresses CYP450 2B8 (Homo sapiens, UniProt P20813). Kind of series: CYP450 inhibition.
The target in another series is CYP450 2C19 (Homo sapiens, UniProt P33261). Description: CYP450 inhibition. The format is in vitro ADME.
Chain of CYP450 2C19 (P33261 whole entry): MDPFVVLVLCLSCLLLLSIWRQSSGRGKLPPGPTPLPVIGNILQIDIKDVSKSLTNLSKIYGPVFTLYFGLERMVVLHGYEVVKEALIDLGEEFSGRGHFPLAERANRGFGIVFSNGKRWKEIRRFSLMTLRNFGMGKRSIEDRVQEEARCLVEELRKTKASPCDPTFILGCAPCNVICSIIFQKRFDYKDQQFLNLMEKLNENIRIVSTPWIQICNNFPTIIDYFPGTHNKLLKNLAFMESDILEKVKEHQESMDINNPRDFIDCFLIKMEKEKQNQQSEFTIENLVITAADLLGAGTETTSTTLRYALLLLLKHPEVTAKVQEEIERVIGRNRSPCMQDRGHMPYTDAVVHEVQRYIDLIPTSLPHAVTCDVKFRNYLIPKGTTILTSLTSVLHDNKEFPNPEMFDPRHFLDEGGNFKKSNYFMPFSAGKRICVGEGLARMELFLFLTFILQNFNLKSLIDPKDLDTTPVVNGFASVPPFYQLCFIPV
In the next series the target is T5, PKCDELTA (Homo sapiens, UniProt Q05655).
T5 construct: purchased Millipore KinaseProfiler (kinases); Cerep (receptors and ion channels)
Kind of series: Millipore kinase panel. The format is biochemical. As to conditions: read-out: % Control.

The target in a further series is T6, CDK2/CYCLINE (Homo sapiens, UniProt P24941).
T6 construct: purchased Millipore KinaseProfiler (kinases); Cerep (receptors and ion channels)
Description: Millipore kinase panel. As to conditions: read-out: % Control. The format is biochemical.

For the next series, the target named is T7, CAMKIDELTA (Homo sapiens, UniProt Q8IU85).
T7 construct: purchased Millipore KinaseProfiler (kinases); Cerep (receptors and ion channels)
Kind of series: Millipore kinase panel. The format is biochemical. As to conditions: read-out: % Control.

For the next series, the target named is T8, PKCBETAI (Homo sapiens, UniProt P05771).
T8 construct: purchased Millipore KinaseProfiler (kinases); Cerep (receptors and ion channels)
Kind of series: Millipore kinase panel. As to conditions: read-out: % Control. The format is biochemical.

The target of the next series is T9, AURKC (Homo sapiens, UniProt Q9UQB9).
T9 construct: purchased Millipore KinaseProfiler (kinases); Cerep (receptors and ion channels)
T9 sequence (Q9UQB9 whole entry): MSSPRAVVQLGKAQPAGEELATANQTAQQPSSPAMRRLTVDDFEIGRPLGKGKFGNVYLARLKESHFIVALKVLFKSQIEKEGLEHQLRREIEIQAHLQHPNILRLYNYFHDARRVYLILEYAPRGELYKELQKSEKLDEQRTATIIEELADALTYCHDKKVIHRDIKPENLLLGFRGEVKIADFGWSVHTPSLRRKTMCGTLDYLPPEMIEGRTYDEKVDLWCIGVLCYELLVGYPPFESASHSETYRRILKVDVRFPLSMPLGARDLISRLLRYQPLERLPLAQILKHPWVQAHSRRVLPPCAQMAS
Description: Millipore kinase panel. As to conditions: read-out: % Control. The format is biochemical.

Another series concerns the target T10, PDGFRALPHA(V561D) (Homo sapiens, UniProt P16234, V561D).
T10 construct: purchased Millipore KinaseProfiler (kinases); Cerep (receptors and ion channels)
Description: Millipore kinase panel. The format is biochemical. As to conditions: read-out: % Control.

A further series addresses T11, PKCEPSILON (Homo sapiens, UniProt Q02156).
T11 construct: purchased Millipore KinaseProfiler (kinases); Cerep (receptors and ion channels)
Kind of series: Millipore kinase panel. The format is biochemical. As to conditions: read-out: % Control.

The target in the next series is CYP450 2C9 (Homo sapiens, UniProt P11712). Kind of series: CYP450 inhibition. The format is in vitro ADME.
The target in the next series is T12, IGF-1R (Homo sapiens, UniProt P08069).
T12 construct: purchased Millipore KinaseProfiler (kinases); Cerep (receptors and ion channels)
Description: Millipore kinase panel. The format is biochemical. As to conditions: read-out: % Control.

The target of another series is T13, P70S6K (Homo sapiens, UniProt P23443).
T13 construct: purchased Millipore KinaseProfiler (kinases); Cerep (receptors and ion channels)
Description: Millipore kinase panel. The format is biochemical. As to conditions: read-out: % Control.

The next series has as its target T14, PKCBII (Homo sapiens, UniProt P05771).
T14 construct: purchased Millipore KinaseProfiler (kinases); Cerep (receptors and ion channels)
Kind of series: Millipore kinase panel. The format is biochemical. As to conditions: read-out: % Control.

The target of another series is T15, PKBBETA (Homo sapiens, UniProt P31751).
T15 construct: purchased Millipore KinaseProfiler (kinases); Cerep (receptors and ion channels)
T15 sequence (P31751 whole entry): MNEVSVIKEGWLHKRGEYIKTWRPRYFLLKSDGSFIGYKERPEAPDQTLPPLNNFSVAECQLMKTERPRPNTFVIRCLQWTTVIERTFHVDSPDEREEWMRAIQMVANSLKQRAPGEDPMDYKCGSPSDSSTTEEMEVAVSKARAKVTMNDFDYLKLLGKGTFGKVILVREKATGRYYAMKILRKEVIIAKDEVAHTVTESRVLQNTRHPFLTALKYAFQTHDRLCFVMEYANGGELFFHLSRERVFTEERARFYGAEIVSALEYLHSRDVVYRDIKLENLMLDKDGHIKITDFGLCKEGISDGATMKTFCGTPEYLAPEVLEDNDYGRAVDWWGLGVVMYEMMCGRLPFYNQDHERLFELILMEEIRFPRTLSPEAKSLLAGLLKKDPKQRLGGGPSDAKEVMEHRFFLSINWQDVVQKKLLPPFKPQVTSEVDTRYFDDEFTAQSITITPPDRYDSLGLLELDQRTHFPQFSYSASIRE
Description: Millipore kinase panel. The format is biochemical. As to conditions: read-out: % Control.

A further series deals with T16, SYK (Homo sapiens, UniProt P43405).
T16 construct: purchased Millipore KinaseProfiler (kinases); Cerep (receptors and ion channels)
Kind of series: Millipore kinase panel. The format is biochemical. As to conditions: read-out: % Control.

The next series has as its target T17, EGFR(T790M) (Homo sapiens, UniProt P00533, T790M).
T17 construct: purchased Millipore KinaseProfiler (kinases); Cerep (receptors and ion channels)
Description: Millipore kinase panel. The format is biochemical. As to conditions: read-out: % Control.

The target of another series is T18, TAO2 (Homo sapiens, UniProt Q9UL54).
T18 construct: purchased Millipore KinaseProfiler (kinases); Cerep (receptors and ion channels)
T18 sequence (Q9UL54 whole entry): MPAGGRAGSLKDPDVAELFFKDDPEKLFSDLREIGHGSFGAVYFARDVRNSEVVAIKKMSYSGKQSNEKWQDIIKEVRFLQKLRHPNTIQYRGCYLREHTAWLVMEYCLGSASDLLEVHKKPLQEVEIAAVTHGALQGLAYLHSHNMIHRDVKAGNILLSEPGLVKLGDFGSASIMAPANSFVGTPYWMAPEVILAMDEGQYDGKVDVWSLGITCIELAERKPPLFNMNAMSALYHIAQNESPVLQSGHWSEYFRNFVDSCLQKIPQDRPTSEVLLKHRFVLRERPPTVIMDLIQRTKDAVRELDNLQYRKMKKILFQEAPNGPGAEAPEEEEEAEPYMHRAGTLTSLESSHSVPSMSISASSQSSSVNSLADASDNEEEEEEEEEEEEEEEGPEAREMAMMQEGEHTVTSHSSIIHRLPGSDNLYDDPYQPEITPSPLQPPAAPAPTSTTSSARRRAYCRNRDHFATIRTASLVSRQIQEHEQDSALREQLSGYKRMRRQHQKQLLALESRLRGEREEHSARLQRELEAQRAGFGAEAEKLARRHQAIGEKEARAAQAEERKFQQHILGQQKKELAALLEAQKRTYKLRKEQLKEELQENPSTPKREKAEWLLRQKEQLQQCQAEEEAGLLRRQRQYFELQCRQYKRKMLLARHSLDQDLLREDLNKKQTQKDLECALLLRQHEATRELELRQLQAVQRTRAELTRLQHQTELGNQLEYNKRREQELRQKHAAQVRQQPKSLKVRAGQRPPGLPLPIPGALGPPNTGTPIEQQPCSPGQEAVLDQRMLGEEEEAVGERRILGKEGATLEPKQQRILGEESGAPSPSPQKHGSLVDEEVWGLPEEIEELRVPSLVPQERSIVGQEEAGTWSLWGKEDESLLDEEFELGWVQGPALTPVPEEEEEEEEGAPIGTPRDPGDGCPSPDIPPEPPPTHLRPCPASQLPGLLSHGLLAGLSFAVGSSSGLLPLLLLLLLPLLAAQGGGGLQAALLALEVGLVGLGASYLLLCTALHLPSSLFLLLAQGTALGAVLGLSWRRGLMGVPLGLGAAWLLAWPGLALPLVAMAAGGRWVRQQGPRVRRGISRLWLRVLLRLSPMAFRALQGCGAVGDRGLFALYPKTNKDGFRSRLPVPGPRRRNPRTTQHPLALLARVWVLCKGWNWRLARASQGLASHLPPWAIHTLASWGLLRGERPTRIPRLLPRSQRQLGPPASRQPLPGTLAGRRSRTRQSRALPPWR
Description: Millipore kinase panel. The format is biochemical. As to conditions: read-out: % Control.

The target in another series is T19, CDK5/P35 (Homo sapiens, UniProt Q00535).
T19 construct: purchased Millipore KinaseProfiler (kinases); Cerep (receptors and ion channels)
Description: Millipore kinase panel. The format is biochemical. As to conditions: read-out: % Control.

The target in the next series is T20, ABL(T315I) (Homo sapiens, UniProt P00519, T315I).
T20 construct: purchased Millipore KinaseProfiler (kinases); Cerep (receptors and ion channels)
Kind of series: Millipore kinase panel. The format is biochemical. As to conditions: read-out: % Control.

In a further series the target is T21, TSSK2 (Homo sapiens, UniProt Q96PF2).
T21 construct: purchased Millipore KinaseProfiler (kinases); Cerep (receptors and ion channels)
Description: Millipore kinase panel. The format is biochemical. As to conditions: read-out: % Control.

T11 sequence (Q02156 whole entry): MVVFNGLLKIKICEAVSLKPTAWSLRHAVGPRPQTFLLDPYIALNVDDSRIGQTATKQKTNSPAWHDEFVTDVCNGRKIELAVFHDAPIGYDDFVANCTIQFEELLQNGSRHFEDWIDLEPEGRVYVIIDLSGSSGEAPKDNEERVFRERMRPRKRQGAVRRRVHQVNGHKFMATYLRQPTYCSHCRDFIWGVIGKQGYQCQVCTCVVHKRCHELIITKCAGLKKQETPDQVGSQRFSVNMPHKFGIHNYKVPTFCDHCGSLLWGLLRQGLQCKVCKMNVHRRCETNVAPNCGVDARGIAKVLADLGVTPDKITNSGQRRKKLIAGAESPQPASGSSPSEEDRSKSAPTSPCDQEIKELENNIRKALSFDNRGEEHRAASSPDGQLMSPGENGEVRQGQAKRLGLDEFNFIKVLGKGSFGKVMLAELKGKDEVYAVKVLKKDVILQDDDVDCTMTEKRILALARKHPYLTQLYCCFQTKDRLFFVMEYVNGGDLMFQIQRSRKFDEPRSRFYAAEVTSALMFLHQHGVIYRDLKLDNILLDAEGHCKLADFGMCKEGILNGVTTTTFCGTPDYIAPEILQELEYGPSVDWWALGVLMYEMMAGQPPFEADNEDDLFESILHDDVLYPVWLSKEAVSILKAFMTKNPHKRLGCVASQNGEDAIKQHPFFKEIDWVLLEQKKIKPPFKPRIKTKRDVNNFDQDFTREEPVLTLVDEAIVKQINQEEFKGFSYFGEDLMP
T10 sequence (P16234 24-1089 V561D): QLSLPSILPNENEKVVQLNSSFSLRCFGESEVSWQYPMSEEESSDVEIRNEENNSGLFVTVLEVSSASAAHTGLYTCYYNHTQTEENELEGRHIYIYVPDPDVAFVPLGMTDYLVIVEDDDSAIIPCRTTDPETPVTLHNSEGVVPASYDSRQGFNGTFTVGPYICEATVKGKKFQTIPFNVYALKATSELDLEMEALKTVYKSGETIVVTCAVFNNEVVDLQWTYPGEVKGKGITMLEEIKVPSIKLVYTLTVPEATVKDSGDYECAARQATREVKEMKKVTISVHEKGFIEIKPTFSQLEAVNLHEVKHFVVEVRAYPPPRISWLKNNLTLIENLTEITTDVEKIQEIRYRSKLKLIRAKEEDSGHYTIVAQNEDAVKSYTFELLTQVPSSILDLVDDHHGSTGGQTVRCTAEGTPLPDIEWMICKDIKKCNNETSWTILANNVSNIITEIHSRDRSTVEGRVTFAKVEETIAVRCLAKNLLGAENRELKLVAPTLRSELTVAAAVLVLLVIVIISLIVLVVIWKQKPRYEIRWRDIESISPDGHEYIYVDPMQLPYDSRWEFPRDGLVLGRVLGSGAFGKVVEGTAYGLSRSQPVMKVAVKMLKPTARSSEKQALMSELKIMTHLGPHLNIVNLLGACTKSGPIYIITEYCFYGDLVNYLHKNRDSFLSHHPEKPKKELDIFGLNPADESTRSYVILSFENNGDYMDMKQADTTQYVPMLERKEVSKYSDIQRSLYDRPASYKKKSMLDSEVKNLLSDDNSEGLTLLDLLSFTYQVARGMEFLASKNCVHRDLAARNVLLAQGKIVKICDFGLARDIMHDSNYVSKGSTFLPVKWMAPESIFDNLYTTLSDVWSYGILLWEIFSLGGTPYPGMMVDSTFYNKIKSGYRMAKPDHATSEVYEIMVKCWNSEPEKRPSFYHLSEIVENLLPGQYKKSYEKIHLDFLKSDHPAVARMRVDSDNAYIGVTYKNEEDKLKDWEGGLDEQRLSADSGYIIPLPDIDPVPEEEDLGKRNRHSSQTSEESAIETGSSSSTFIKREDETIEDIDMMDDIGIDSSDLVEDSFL
T14 sequence (P05771 1-673 isoform P05771-2): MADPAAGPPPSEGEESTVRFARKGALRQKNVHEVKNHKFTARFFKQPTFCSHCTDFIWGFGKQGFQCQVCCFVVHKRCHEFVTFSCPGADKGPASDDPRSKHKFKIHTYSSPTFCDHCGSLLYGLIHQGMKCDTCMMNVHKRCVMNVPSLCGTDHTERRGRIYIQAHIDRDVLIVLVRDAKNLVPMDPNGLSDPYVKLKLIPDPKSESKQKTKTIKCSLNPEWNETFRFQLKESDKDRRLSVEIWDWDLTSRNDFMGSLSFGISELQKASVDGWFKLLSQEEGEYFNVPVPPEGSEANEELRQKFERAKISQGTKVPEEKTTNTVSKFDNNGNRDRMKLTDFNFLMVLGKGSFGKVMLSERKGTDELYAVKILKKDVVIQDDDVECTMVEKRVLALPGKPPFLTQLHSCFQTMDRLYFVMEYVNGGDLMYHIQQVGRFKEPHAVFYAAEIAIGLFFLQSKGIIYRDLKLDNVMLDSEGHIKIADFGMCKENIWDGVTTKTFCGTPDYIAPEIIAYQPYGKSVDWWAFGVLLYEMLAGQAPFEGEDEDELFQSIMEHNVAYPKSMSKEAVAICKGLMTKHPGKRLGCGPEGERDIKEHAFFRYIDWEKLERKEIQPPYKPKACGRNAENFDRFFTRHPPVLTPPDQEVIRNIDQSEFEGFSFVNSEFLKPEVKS

With `O=C1NCCC12CCN(c1c(Cl)cncc1-c1ccc(N3CCOCC3)cc1)CC2` [Compound 44, 8-(3-Chloro-5-(4-morpholin-4-ylphenyl)pyridin-4-yl)-2,8-diazaspiro[4.5]decan-1-one], the “glutathione adduct in an in vitro reactive metabolite assay” value in series [1] was “generated a glutathione adduct”. Also, the remaining activity at 1 µM was 0% at ACK1, -39% on GSK3ALPHA, 4% at DRAK1 and 3% at HCK.

Regarding `Cn1cc(-c2ccc(-c3cncc(Cl)c3N3CCC4(CCNC4=O)CC3)cc2)cn1` [Compound 74, 8-(3-Chloro-5-(4-(1-methyl-1H-pyrazol-4-yl)phenyl)pyridin-4-yl)-2,8-diazaspiro[4.5]decan-1-one], the negative logarithm of the IC50 (pIC50) against CYP450 2B8 is under 4.70; against CYP450 2C19, 5.10; on CYP450 2C9 it was 5.38. Moreover, the remaining activity at 1 µM on PKCDELTA was -37%; on CDK2/CYCLINE it was -14%; at CAMKIDELTA, -4%; on PKCBETAI it was -23%; on AURKC it was -10%; on PDGFRALPHA(V561D), 6%. For the same compound, the remaining activity at 1 µM was -22% at PKCEPSILON; 5% at IGF-1R; -15% at P70S6K; -3% on PKCBII; -13% on PKBBETA; 5% at SYK. The remaining activity at 1 µM on EGFR(T790M) is 0%; on TAO2, -15%; on CDK5/P35, -16%; on ABL(T315I), 7%; on TSSK2 it was -1%.
